Data reported in patent publication US6310095A, “Inhibitors of protein isoprenyl transferases” (University of Pittsburgh, priority 1998, dated 2001).
Counter-ions that a name gives are not always drawn.

Each molecule was assayed against T1, protein farnesyltransferase (Rattus norvegicus, UniProt Q02293+Q04631) (assay: in vitro inhibition of protein farnesyltransferase (scintillation proximity assay, biotin-K Ras B fragment)). Settings: at 1 × 10^-6 M.
T1 construct: Rat brain protein farnesyltransferase activity is measured; from tissue; host or cells: rat brain; purified according to Reiss et al., Cell 62:81-88 (1990), steps one through three
Format: biochemical
Excerpt: The ability of the compounds of the invention to inhibit protein farnesyltransferase or protein geranylgeranyltransferase can be measured according to the method of Moores, et al., J. Biol. Chem. 266: 14603 (1991) or the method of Vogt, et al., J. Biol. Chem. 270:660-664 (1995). In addition, procedures for determination of the inhibition of farnesylation of the oncogene protein Ras are described by Goldstein, et al., J. Biol. Chem., 266:15575-15578 (1991) and by Singh in U.S. Pat. No. 5,245,061.
In addition, in vitro inhibition of protein farnesyltransferase may be measured by the following procedure. Rat brain protein farnesyltransferase activity is measured using an Amersham Life Science commercial scintillation proximity assay kit and substituting a biotin-K Ras B fragment (biotin-[…]CO2 H), 0.1 mM final concentration, for the biotin-lamin substrate provided by Amersham. The enzyme is purified according to Reiss, Y., et al., Cell, 62: 81-88 (1990), utilizing steps one through three.
The % inhibition of protein farnesyltransferase was determined for representative compounds of the invention.

SMILES	% inhibition of farnesyltransferase [%]
CSCC[C@H](NC(=O)c1ccc(N2CC(=O)NNC2=O)cc1-c1ccccc1)C(=O)O [Example 224]	41
CSCC[C@H](NC(=O)c1ccc(COCc2cccs2)cc1-c1ccccc1C)C(=O)[O-].[Li+] [Example 273]	96
CSCC[C@H](NC(=O)c1ccc(COCc2ccsc2)cc1-c1ccccc1C)C(=O)[O-].[Li+] [Example 274]	94
CSCC[C@H](NC(=O)c1ccc(COCC2CCOC2)cc1-c1ccccc1)C(=O)O (stereo partly shown) [Example 287]	24
CSCC[C@H](NC(=O)c1ccc(COCC2CCCO2)cc1-c1ccccc1)C(=O)O (stereo partly shown) [Example 288]	22
CCCCON(CCC1CCCCC1)Cc1ccc(C(=O)N[C@@H](CCS(C)(=O)=O)C(=O)O)c(-c2ccccc2C)c1 [Example 298]	43
CCCCN(C)N(CCC1CCCCC1)Cc1ccc(C(=O)N[C@@H](CCS(C)(=O)=O)C(=O)O)c(-c2ccccc2C)c1 [Example 300]	22
CSCC[C@H](NC(=O)c1ccc(CN(C)C(CC2CCCCC2)C(=O)N2CCCCC2)cc1-c1ccccc1C)C(=O)O (stereo partly shown) [Example 301]	98
CSCC[C@H](NC(=O)c1ccc(CNC(C)(C)Cc2ccccc2)cc1-c1ccccc1C)C(=O)O [Example 307]	82
CSCC[C@H](NC(=O)c1ccc(CNC(C)(C)CC2CCCCC2)cc1-c1ccccc1C)C(=O)O [Example 308]	62
CSCC[C@H](NC(=O)c1ccc(CN(C)C(C)(C)Cc2ccccc2)cc1-c1ccccc1C)C(=O)O [Example 309]	98
Cc1ccccc1-c1cc(CNC(C)(C)Cc2ccccc2)ccc1C(=O)N[C@@H](CCS(C)(=O)=O)C(=O)O [Example 311]	97
Cc1ccccc1-c1cc(CN(C)C(C)(C)Cc2ccccc2)ccc1C(=O)N[C@@H](CCS(C)(=O)=O)C(=O)O [Example 313]	94
Cc1ccccc1-c1cc(CN(C)C(C)(C)CC2CCCCC2)ccc1C(=O)N[C@@H](CCS(C)(=O)=O)C(=O)O [Example 314]	97
CSCC[C@H](NC(=O)c1ccc(CN(C2CC2)C(C)(C)Cc2ccccc2)cc1-c1ccccc1C)C(=O)O [Example 315]	93
CSCC[C@H](NC(=O)c1ccc(CN(C2CC2)C(C)(C)CC2CCCCC2)cc1-c1ccccc1C)C(=O)O [Example 316]	63
CSCC[C@H](NC(=O)c1ccc(CN(C(C)C)C(C)(C)Cc2ccccc2)cc1-c1ccccc1C)C(=O)O [Example 317]	54
CSCC[C@H](NC(=O)c1ccc(CN(C(C)C)C(C)(C)CC2CCCCC2)cc1-c1ccccc1C)C(=O)O [Example 318]	98
Cc1ccccc1-c1cc(CN(C2CC2)C(C)(C)Cc2ccccc2)ccc1C(=O)N[C@@H](CCS(C)(=O)=O)C(=O)O [Example 319]	98
Cc1ccccc1-c1cc(CN(C2CC2)C(C)(C)CC2CCCCC2)ccc1C(=O)N[C@@H](CCS(C)(=O)=O)C(=O)O [Example 320]	93
CSCC[C@H](NC(=O)c1ccc(CN(C2CC2)C2(CC3CCCCC3)CC2)cc1-c1ccccc1C)C(=O)O [Example 324]	98
CSCC[C@H](NC(=O)c1ccc(CN(C(C)C)C2(Cc3ccccc3)CC2)cc1-c1ccccc1C)C(=O)O [Example 325]	99
CSCC[C@H](NC(=O)c1ccc(CN(C(C)C)C2(CC3CCCCC3)CC2)cc1-c1ccccc1C)C(=O)O [Example 326]	91
CSCC[C@H](NC(=O)c1ccc(CN(C2CC2)C2(Cc3ccccc3)CCC2)cc1-c1ccccc1C)C(=O)O [Example 329]	98
CSCC[C@H](NC(=O)c1ccc(CN(C2CC2)C2(CC3CCCCC3)CCC2)cc1-c1ccccc1C)C(=O)O [Example 330]	98
CSCC[C@H](NC(=O)c1ccc(CN(C(C)C)C2(Cc3ccccc3)CCC2)cc1-c1ccccc1C)C(=O)O [Example 331]	98
CSCC[C@H](NC(=O)c1ccc(CN(C(C)C)C2(CC3CCCCC3)CCC2)cc1-c1ccccc1C)C(=O)O [Example 332]	26
Cc1ccccc1-c1cc(CN(C2CC2)C2(Cc3ccccc3)CCC2)ccc1C(=O)N[C@@H](CCS(C)(=O)=O)C(=O)O [Example 333]	99
Cc1ccccc1-c1cc(CN(C2CC2)C2(CC3CCCCC3)CCC2)ccc1C(=O)N[C@@H](CCS(C)(=O)=O)C(=O)O [Example 334]	93

Same assay, conditions: at 1 × 10^-6 M; read-out: % inhibition of farnesyltransferase

SMILES	inhibition at 1 µM [%]
CSCCC(NC(=O)c1ccc(NC(=O)Cc2cscn2)cc1-c1ccccc1)C(=O)O (stereo not shown) [Example 162, [4-(thiazo-4-ylmethylcarbonyl)amino-2-phenylbenzoyl]methionine]	12
CSCC[C@H](NC(=O)c1ccc(NC(=O)Cc2nccs2)cc1-c1ccccc1)C(=O)O [Example 163, [4-(thiazol-2-ylmethylcarbonyl)amino-2-phenylbenzoyl]methionine]	18
COC(=O)[C@H](CCSC)NC(=O)c1ccc(NC(=O)[C@@H]2CSCN2)cc1-c1ccccc1 [Example 164, [4-((R)-thiazolidin-4-ylcarbonyl)amino-2-phenylbenzoyl]methionine methyl ester hydrochloride]	92
CSCC[C@H](NC(=O)c1ccc(NC(=O)[C@@H]2CSCN2)cc1-c1ccccc1)C(=O)O [Example 165, [4-((R)-thiazolidin-4-ylcarbonyl)amino-2-phenylbenzoyl]methionine]	74
CSCC[C@H](NC(=O)c1ccc(NC[C@@H]2CSCN2)cc1-c1ccccc1)C(=O)O [Example 166, [4-((R)-thiazolidin-4-ylmethyl)amino-2-phenylbenzoyl]methionine hydrochloride]	97
CSCC[C@H](NC(=O)c1ccc(NC(=O)C2CCC(=O)N2)cc1-c1ccccc1)C(=O)O (stereo partly shown) [Example 202, [4-(2-pyrrolidinone-5-ylcarbonylamino)-2-phenylbenzoyl]methionine]	31
CSCCC(NC(=O)c1ccc(NC(=O)c2cncnc2)cc1-c1ccccc1)C(=O)O (stereo not shown) [Example 219, [4-(5-pyrimidylcarboxyamino)-2-phenylbenzoyl]methionine]	56
CSCCC(NC(=O)c1ccc(NC(=O)C2CCCNC2)cc1-c1ccccc1)C(=O)O (stereo not shown) [Example 231, [4-(3-piperidinecarboxyamino)-2-phenylbenzoyl]methionine hydrochloride]	50
CSCC[C@H](NC(=O)c1ccc(NCC2CNCCN2)cc1-c1ccccc1)C(=O)O (stereo partly shown) [Example 286, [4-(2-piperazinylmethylamino)-2-phenylbenzoyl]methionine]	84

Same assay, conditions: read-out: % inhibition of farnesyltransferase

SMILES	inhibition at 1 µM [%]
CSCC[C@H](NC(=O)c1ccc(NC(=O)C2=C(C(F)(F)F)C=CNC2)cc1-c1ccccc1)C(=O)O [Example 283, [4-(1H-4-trifluoromethyl-1,2-dihydropyrid-3-ylcarbonylamino)-2-phenylbenzoyl]methionine sodium salt]	98
CSCC[C@H](NC(=O)c1ccc(CNCc2ccco2)cc1-c1ccccc1)C(=O)O [Example 302, [4-(2-furylmethylaminomethyl)-2-phenylbenzoyl]methionine lithium salt]	31
